According to patent publication US20230123334A1, “AMINO LIPID COMPOUND, PREPARATION METHOD THEREFOR, AND APPLICATION THEREOF” (SHENZHEN SHENXIN BIOTECHNOLOGY CO., LTD., priority 2020, published 2023):

How the values were obtained:
HEK293 cells [1] = test: Preliminary screening as DNA vectors, GFP transfection of HEK293 cells; format: cell-based; details: HEK293 cells; lipid/DOPE liposome with 75 ng plasmid DNA (psin-EGFP-IRES-Puro); number of cells expressing GFP divided by total number of nuclei (Hoechst)
Summary of the method: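 HEK293 cells in DMEM/10% FBS transfected with 75 ng EGFP plasmid per well complexed with amino lipid/DOPE liposomes in pH 5.6 sodium acetate. Hoechst nuclear stain added 20-24 h post-transfection, then cells cultured another 20-24 h. Confocal imaging gives GFP-positive cells as % of total nuclei.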

HEK293 cells [2] = test: Preliminary screening as mRNA vectors, EGFP mRNA transfection of HEK293 cells; format: cell-based; details: HEK293 cells, 96-well plates, EGFP mRNA 50 ng per well; percentage of GFP fluorescent cells relative to total number of cells (Hoechst)
Summary of the method: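 HEK293 cells in DMEM plus 10% FBS transfected in 96-well format with 50 ng EGFP mRNA per well; Lipofectamine2000 served as positive control. Read-out is the percentage of GFP-fluorescent cells among total cells, counted by Hoechst nuclear stain.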

SMILES	Absolute DNA transfection efficiency in HEK293 cells (HEK293 cells [1]) [%]	Absolute mRNA transfection efficiency in HEK293 cells (HEK293 cells [2]) [%]
CCCCCCCCCCCCNc1nc(NCCCCCCC)nc(NCCN2CCOCC2)n1 [Compound N7N12D2]	0.0	0.0
CCCCCCCCCCCCNc1nc(NCCCCCCC)nc(NCCN2CCCC2)n1 [Compound N7N12D3]	3.5	6.3
CCCCCCCCCCCCNc1nc(NCCCCCCC)nc(NCCN2CCCCC2)n1 [Compound N7N12D4]	0.0	0.6
CCCCCCCCCCCCNc1nc(NCCCCCCC)nc(NCCN2CCN(C)CC2)n1 [Compound N7N12D5]	0.3	0.0
CCCCCCCCCCCCNc1nc(NCCCCCCC)nc(NCCCN(C)C)n1 [Compound N7N12D6]	0.4	0.2
CCCCCCCCCCCCNc1nc(NCCCCCCC)nc(NCCN(CC)CC)n1 [Compound N7N12D7]	0.0	0.0
CCCCCCCCCCCCNc1nc(NCCCCCCC)nc(NCCCN2CCOCC2)n1 [Compound N7N12D8]	0.1	0.0
CCCCCCCCCCCCNc1nc(NCCCCCCC)nc(NCCCN2CCN(C)CC2)n1 [Compound N7N12D9]	0.1	0.0
CCCCCCCCCCCCNc1nc(NCCCCCCC)nc(NCC2CCN(C)CC2)n1 [Compound N7N12D10]	1.4	0.8
CCCCCCCCCCCCCNc1nc(NCCCCCCC)nc(NCCN(C)C)n1 [Compound N7N13D1]	1.0	0.4
CCCCCCCCCCCCCNc1nc(NCCCCCCC)nc(NCCN2CCOCC2)n1 [Compound N7N13D2]	0.1	0.0
CCCCCCCCCCCCCNc1nc(NCCCCCCC)nc(NCCN2CCCC2)n1 [Compound N7N13D3]	0.0	7.8
CCCCCCCCCCCCCNc1nc(NCCCCCCC)nc(NCCN2CCCCC2)n1 [Compound N7N13D4]	0.0	0.3
CCCCCCCCCCCCCNc1nc(NCCCCCCC)nc(NCCN2CCN(C)CC2)n1 [Compound N7N13D5]	0.9	0.9
CCCCCCCCCCCCCNc1nc(NCCCCCCC)nc(NCCCN(C)C)n1 [Compound N7N13D6]	1.6	2.3
CCCCCCCCCCCCCNc1nc(NCCCCCCC)nc(NCCN(CC)CC)n1 [Compound N7N13D7]	0.1	0.0
CCCCCCCCCCCCCNc1nc(NCCCCCCC)nc(NCCCN2CCOCC2)n1 [Compound N7N13D8]	0.0	0.1
CCCCCCCCCCCCCNc1nc(NCCCCCCC)nc(NCCCN2CCN(C)CC2)n1 [Compound N7N13D9]	1.3	0.1
CCCCCCCCCCCCCNc1nc(NCCCCCCC)nc(NCC2CCN(C)CC2)n1 [Compound N7N13D10]	1.6	1.6
CCCCCCCCCCCCCCCNc1nc(NCCCCCCC)nc(NCCN(C)C)n1 [Compound N7N15D1]	1.0	1.3
CCCCCCCCCCCCCCCNc1nc(NCCCCCCC)nc(NCCN2CCOCC2)n1 [Compound N7N15D2]	0.0	0.1
CCCCCCCCCCCCCCCNc1nc(NCCCCCCC)nc(NCCN2CCCC2)n1 [Compound N7N15D3]	5.2	3.8
CCCCCCCCCCCCCCCNc1nc(NCCCCCCC)nc(NCCN2CCCCC2)n1 [Compound N7N15D4]	0.2	0.0
CCCCCCCCCCCCCCCNc1nc(NCCCCCCC)nc(NCCN2CCN(C)CC2)n1 [Compound N7N15D5]	0.0	0.0
CCCCCCCCCCCCCCCNc1nc(NCCCCCCC)nc(NCCCN(C)C)n1 [Compound N7N15D6]	1.6	1.2

SMILES	Absolute DNA transfection efficiency in HEK293 cells (HEK293 cells [1]) [%]	Absolute mRNA transfection efficiency in HEK293 cells (HEK293 cells [2]) [%]
CCCCCCCCCCCCCCCNc1nc(NCCCCCCC)nc(NCCN(CC)CC)n1 [Compound N7N15D7]	0.0	0.0
CCCCCCCCCCCCCCCNc1nc(NCCCCCCC)nc(NCCCN2CCOCC2)n1 [Compound N7N15D8]	0.2	0.2
CCCCCCCCCCCCCCCNc1nc(NCCCCCCC)nc(NCCCN2CCN(C)CC2)n1 [Compound N7N15D9]	0.6	0.7
CCCCCCCCCCCCCCCNc1nc(NCCCCCCC)nc(NCC2CCN(C)CC2)n1 [Compound N7N15D10]	0.6	2.5
CCCCCCCCCCCCCCCCNc1nc(NCCCCCCC)nc(NCCN(C)C)n1 [Compound N7N16D1]	0.9	0.5
CCCCCCCCCCCCCCCCNc1nc(NCCCCCCC)nc(NCCN2CCOCC2)n1 [Compound N7N16D2]	0.0	0.1
CCCCCCCCCCCCCCCCNc1nc(NCCCCCCC)nc(NCCN2CCCC2)n1 [Compound N7N16D3]	2.3	1.3
CCCCCCCCCCCCCCCCNc1nc(NCCCCCCC)nc(NCCN2CCCCC2)n1 [Compound N7N16D4]	0.0	0.0
CCCCCCCCCCCCCCCCNc1nc(NCCCCCCC)nc(NCCN2CCN(C)CC2)n1 [Compound N7N16D5]	0.3	0.0
CCCCCCCCCCCCCCCCNc1nc(NCCCCCCC)nc(NCCCN(C)C)n1 [Compound N7N16D6]	0.6	5.0
CCCCCCCCCCCCCCCCNc1nc(NCCCCCCC)nc(NCCN(CC)CC)n1 [Compound N7N16D7]	0.0	0.4
CCCCCCCCCCCCCCCCNc1nc(NCCCCCCC)nc(NCCCN2CCOCC2)n1 [Compound N7N16D8]	0.1	0.0
CCCCCCCCCCCCCCCCNc1nc(NCCCCCCC)nc(NCCCN2CCN(C)CC2)n1 [Compound N7N16D9]	0.0	0.0
CCCCCCCCCCCCCCCCNc1nc(NCCCCCCC)nc(NCC2CCN(C)CC2)n1 [Compound N7N16D10]	1.8	3.1
CCCCCCCCCCCCCCCCCCNc1nc(NCCCCCCC)nc(NCCN(C)C)n1 [Compound N7N18D1]	1.0	2.3
CCCCCCCCCCCCCCCCCCNc1nc(NCCCCCCC)nc(NCCN2CCOCC2)n1 [Compound N7N18D2]	0.0	0.0
CCCCCCCCCCCCCCCCCCNc1nc(NCCCCCCC)nc(NCCN2CCCC2)n1 [Compound N7N18D3]	5.0	0.1
CCCCCCCCCCCCCCCCCCNc1nc(NCCCCCCC)nc(NCCN2CCCCC2)n1 [Compound N7N18D4]	0.2	0.1
CCCCCCCCCCCCCCCCCCNc1nc(NCCCCCCC)nc(NCCN2CCN(C)CC2)n1 [Compound N7N18D5]	0.7	0.1
CCCCCCCCCCCCCCCCCCNc1nc(NCCCCCCC)nc(NCCCN(C)C)n1 [Compound N7N18D6]	0.7	1.1
CCCCCCCCCCCCCCCCCCNc1nc(NCCCCCCC)nc(NCCN(CC)CC)n1 [Compound N7N18D7]	0.0	0.0
CCCCCCCCCCCCCCCCCCNc1nc(NCCCCCCC)nc(NCCCN2CCOCC2)n1 [Compound N7N18D8]	0.2	0.2
CCCCCCCCCCCCCCCCCCNc1nc(NCCCCCCC)nc(NCCCN2CCN(C)CC2)n1 [Compound N7N18D9]	2.1	0.5
CCCCCCCCCCCCCCCCCCNc1nc(NCCCCCCC)nc(NCC2CCN(C)CC2)n1 [Compound N7N18D10]	15.6	73.8
